From article PMC7588595, “Small-molecule active pharmaceutical ingredients of approved cancer therapeutics inhibit human aspartate/asparagine-β-hydroxylase” (Bioorganic & Medicinal Chemistry, 2020)
Counter-ions that a name gives are not always drawn. Like-named read-outs stand apart in the source and are kept apart here.

Molecular target: T1, human AspH (His6-AspH315–758) (Homo sapiens, UniProt Q12797)
T1 construct: N-Terminally His6-tagged human AspH315–758 (His6-AspH315–758) was produced in Escherichia coli BL21 (DE3) cells; made in house; host or cells: Escherichia coli BL21 (DE3), pET-28a(+) vector
T1 sequence (Q12797 315-758): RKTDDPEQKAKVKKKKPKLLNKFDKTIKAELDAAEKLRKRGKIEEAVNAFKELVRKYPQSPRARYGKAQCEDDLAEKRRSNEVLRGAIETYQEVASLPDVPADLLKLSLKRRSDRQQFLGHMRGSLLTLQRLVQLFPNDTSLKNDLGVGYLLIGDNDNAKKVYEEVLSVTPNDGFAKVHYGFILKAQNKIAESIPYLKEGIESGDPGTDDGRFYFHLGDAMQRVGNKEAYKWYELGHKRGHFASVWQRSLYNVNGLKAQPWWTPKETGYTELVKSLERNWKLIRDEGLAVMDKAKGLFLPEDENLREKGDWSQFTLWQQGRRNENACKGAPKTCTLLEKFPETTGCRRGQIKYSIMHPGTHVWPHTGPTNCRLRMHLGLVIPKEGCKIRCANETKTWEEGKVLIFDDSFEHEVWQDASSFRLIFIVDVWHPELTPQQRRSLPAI
Assay: SPE-MS AspH inhibition assay (hFX-CP101-119 substrate hydroxylation)
Format: biochemical

[1] = AspH-inhibitor screening, 384-well Plate 1
[2] = AspH-inhibitor screening, 384-well Plate 1, substrate conversion
[3] = AspH-inhibitor screening, Plate 1-duplicate
[4] = AspH-inhibitor screening, Plate 1-duplicate, substrate conversion

| Molecule | Plate 1 (% inhibition) [1] [%] | Plate 1 (% conversion) [2] [%] | Plate 1-duplicate (% inhibition) [3] [%] | Plate 1-duplicate (% conversion) [4] [%] | other results |
| --- | --- | --- | --- | --- | --- |
| CCc1c(C(=O)C(N)=O)c2c(OCC(=O)O)cccc2n1Cc1ccccc1 [Varespladib] | 9.84 | 45.21 | 8.14 | 48.01 | – |
| Clc1ccc(Nc2nnc(Cc3ccncc3)c3ccccc23)cc1 [Vatalanib] | 7.55 | 46.26 | 6.67 | 48.73 | – |
| CCCS(=O)(=O)Nc1ccc(F)c(C(=O)c2c[nH]c3ncc(-c4ccc(Cl)cc4)cc23)c1F [Vemurafenib, reference compound] | – | 12.12 | – | 12.00 | IC50 (50 nM His6-AspH315–758, 1 μM hFX-CP101–119, 100 μM LAA, 3 μM 2OG, 2 μM FAS, 50 mM HEPES pH 7.5, 20 °C, read-out: IC50): 12.9 ± 1.6 µM; remaining activity at 20 µM (20 μM fixed inhibitor concentration): ~20%; Hill coefficient of AspH inhibition curves (dose-response curves of SPE-MS AspH inhibition assay): < -2.0; IC50 (read-out: IC50 at 10 μM substrate, 10 μM hFX-CP101–119 and 10 μM 2OG instead of 1 μM hFX-CP101–119 and 3 μM 2OG): 16.9 ± 4.4 µM; IC50 (read-out: IC50 at 20 μM Fe(II), 20 μM Fe(II) instead of 2 μM Fe(II)): 10.5 ± 1.9 µM; IC50 (read-out: IC50 at 200 μM 2OG, 200 μM 2OG instead of 3 μM 2OG): 15.1 ± 0.2 µM |
| CC[C@]1(O)C[C@@H]2CN(CCc3c([nH]c4ccccc34)[C@@](C(=O)OC)(c3cc4c(cc3OC)N(C)[C@H]3[C@@](O)(C(=O)OC)[C@H](OC(C)=O)[C@]5(CC)C=CCN6CC[C@]43[C@@H]65)C2)C1 [Vinblastine sulfate] | -22.64 | 60.21 | -30.80 | 67.31 | – |
| CC[C@]1(O)C[C@H]2CN(CCc3c([nH]c4ccccc34)[C@@](C(=O)OC)(c3cc4c(cc3OC)N(C=O)[C@H]3[C@@](O)(C(=O)OC)[C@H](OC(C)=O)[C@]5(CC)C=CCN6CC[C@]43[C@@H]65)C2)C1.O=S(=O)(O)O [Vincristine Sulfate (Oncovin)] | 7.89 | 46.11 | 3.90 | 50.11 | – |
| CCC1=C[C@@H]2CN(C1)Cc1c([nH]c3ccccc13)[C@@](C(=O)OC)(c1cc3c(cc1OC)N(C)[C@H]1[C@@](O)(C(=O)OC)[C@H](OC(C)=O)[C@]4(CC)C=CCN5CC[C@]31[C@@H]54)C2 [Vinorelbine tartrate] | 35.58 | 33.32 | 36.10 | 34.14 | – |
| CS(=O)(=O)c1ccc(C(=O)Nc2ccc(Cl)c(-c3ccccn3)c2)c(Cl)c1 [Vismodegib] | 10.42 | 44.94 | 2.79 | 50.66 | – |
| O=C(CCCCCCC(=O)Nc1ccccc1)NO [Vorinostat] | 3.50 | 48.13 | 7.67 | 48.24 | – |
| Oc1nc(-c2ccc(C(F)(F)F)cc2)nc2c1CSCC2 [XAV-939] | 0.04 | 49.73 | 0.58 | 51.75 | – |
| COc1cc2nccc(Oc3ccc(NC(=O)C4(C(=O)Nc5ccc(F)cc5)CC4)cc3)c2cc1OC [XL184_Cabozantinib] | 11.20 | 44.58 | -8.84 | 56.43 | – |
| COc1cc2c(Oc3ccc(NC(=O)C4(C(=O)Nc5ccc(F)cc5)CC4)cc3F)ccnc2cc1OCCCN1CCOCC1 [XL880 (Foretinib)] | -64.58 | 79.57 | -62.78 | 83.18 | – |
| COc1ccc(Cl)c(Nc2nc3ccccc3nc2NS(=O)(=O)c2cccc(NC(=O)C(C)(C)N)c2)c1 [XL-147] | 3.96 | 47.92 | 7.32 | 48.41 | – |
| COCCn1c2c([n+](Cc3cnccn3)c1C)C(=O)c1ccccc1C2=O [YM155] | -27.18 | 62.30 | -43.09 | 73.41 | – |
| FC(F)c1nc2ccccc2n1-c1nc(N2CCOCC2)nc(N2CCOCC2)n1 [ZSTK474] | -1.18 | 50.29 | 1.69 | 51.20 | – |
| O=P(O)(O)C(O)(Cn1ccnc1)P(=O)(O)O [Zoledronic acid] | 19.60 | 40.70 | 13.13 | 45.53 | – |
| O=C(O)c1ccnc(C(=O)O)c1 [pyridine-2,4-dicarboxylic acid] | – | – | – | – | Plate 1 (% inhibition) (100 uM 2,4-PDCA controls, columns 23, 24, Plate 1): 101.14%; Plate 1-duplicate (% inhibition) (100 uM 2,4-PDCA controls, columns 23, 24, Plate 1-duplicate): 99.94% |
| AT 101 | 102.80 | 2.28 | 99.60 | 2.64 | – |
| AZ 3146 | -12.15 | 55.36 | 4.56 | – | – |
| AZD4547 | -11.19 | 54.92 | -5.75 | 54.89 | – |
| Bleomycin sulfate | 98.37 | 4.32 | 96.60 | 4.13 | – |
| KX2-391 | 2.59 | 48.55 | 1.17 | 51.46 | – |
| VX-11e | – | – | – | – | Plate 1 (% conversion): 33.84%; Plate 1 (% inhibition): 34.46%; Plate 1-duplicate (% conversion): 36.75%; Plate 1-duplicate (% inhibition): 30.84% |
